These results are taken from US20220073496A1, “NOVEL QUINOLINE DERIVATIVE INHIBITOR” (Nanjing Transthera Biosciences Co., Ltd., priority 2018, published 2022).

As a reminder, the IC50 is the concentration at which inhibition is half-maximal. The low end stands for greater potency, the high end for weaker potency.

Test [1] concerns the target T1, Ba/F3 LMNA-NTRK1-V573M cells (Homo sapiens, UniProt P04629, V573M, cells depend on it).
T1 construct: Ba/F3 LMNA-NTRK1 G667C and Ba/F3 LMNA-NTRK1-V573M are NTRK1 gene mutant cells; fused on or other part: P02545 (Prelamin-A/C)
The experiment in a line: Cell viability test (CTG), Ba/F3 LMNA-NTRK1-V573M. The class given is cell-based. As to conditions: NTRK1 gene mutant cell, 72 hours, read-out: IC50 Ba/F3 LMNA-NTRK1-V573M. From the text: (§1) Assay 8: Cell viability test of the compounds of the present invention
(§2) Ba/F3 LMNA-NTRK1 G667C and Ba/F3 LMNA-NTRK1-V573M are NTRK1 gene mutant cells.
(§3) Test substances: the compounds of the present invention, wherein the structures thereof were as described above.
(§4) Test instrument: SpectraMax multi-label microplate reader.
(§5) Each cell was inoculated in a 96-well plate and adherent cells were cultivated overnight. Different concentrations of the compounds (9 dose groups, 3.16 times DMSO serial dilution) were added to give the final concentration of 0.1-1000 nM, and the final DMSO content was 1‰. The negative control wells contained the medium containing 1‰ DMSO. The cells were incubated at 37° C. in a condition of 5% CO2 and 95% humidity for 72 hours for use. An equal volume of CTG reagent was added to each well, and the cells were lysed by shaking for 5 minutes on an orbital shaker, and incubated for 20 minutes at room temperature to stabilize the cold light signal. The cold light signal was read with a microplate reader. Data were analyzed using GraphPad Prism 5.0 software, and data were fitted using nonlinear S-curve regression to derive a dose-response curve and thereby calculate IC50 values.

Test [2] addresses T2, Ba/F3 LMNA-NTRK1 G667C cells (Homo sapiens, UniProt P04629, G667C, cells depend on it).
T2 construct: Ba/F3 LMNA-NTRK1 G667C and Ba/F3 LMNA-NTRK1-V573M are NTRK1 gene mutant cells; fused on or other part: P02545 (Prelamin-A/C)
The experiment in a line: Cell viability test (CTG), Ba/F3 LMNA-NTRK1 G667C. In kind it is cell-based. As to conditions: NTRK1 gene mutant cell, 72 hours, read-out: IC50 Ba/F3 LMNA-NTRK1 G667C.
Description: as §1, §2, §3, §4, §5

In a further test the target is T3, TrkA (h) (Homo sapiens, UniProt P04629).
T3 construct: purchased
T3 sequence (P04629 33-796): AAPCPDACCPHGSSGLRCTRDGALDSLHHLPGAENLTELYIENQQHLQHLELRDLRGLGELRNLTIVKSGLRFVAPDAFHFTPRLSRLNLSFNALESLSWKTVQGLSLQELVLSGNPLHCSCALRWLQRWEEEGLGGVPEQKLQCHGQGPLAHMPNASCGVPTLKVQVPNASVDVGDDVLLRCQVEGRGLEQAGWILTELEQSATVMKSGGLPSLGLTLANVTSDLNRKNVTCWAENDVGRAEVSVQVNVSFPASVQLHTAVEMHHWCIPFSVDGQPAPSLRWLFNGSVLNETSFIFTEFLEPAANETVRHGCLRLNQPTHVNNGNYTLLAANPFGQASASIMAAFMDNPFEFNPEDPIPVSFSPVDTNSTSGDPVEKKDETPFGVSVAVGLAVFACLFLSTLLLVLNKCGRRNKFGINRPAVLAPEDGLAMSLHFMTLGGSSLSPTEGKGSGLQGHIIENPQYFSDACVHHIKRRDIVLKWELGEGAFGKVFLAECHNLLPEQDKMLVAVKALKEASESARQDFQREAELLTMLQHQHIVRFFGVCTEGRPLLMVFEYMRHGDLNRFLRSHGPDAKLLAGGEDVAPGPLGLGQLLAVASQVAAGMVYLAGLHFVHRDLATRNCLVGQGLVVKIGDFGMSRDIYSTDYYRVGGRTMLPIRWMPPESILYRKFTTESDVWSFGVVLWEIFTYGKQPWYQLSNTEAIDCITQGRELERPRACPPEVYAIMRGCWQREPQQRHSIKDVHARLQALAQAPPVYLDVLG
Nature of the test: Enzymatic activity test, TrkA (h). As to conditions: 10 μM [γ-33P]-ATP, 40 minutes, room temperature. In kind it is biochemical. Here is the method: Assay 4: Enzymatic Activity Test of the Compound of the Present Invention
Test substances: the compounds of the present invention, wherein the structures and preparations thereof were as described above.
Preparation of the Compound Stock Solution
The compound was dissolved in 100% DMSO to prepare a stock solution with a maximum concentration of 500 μM.
Preparation of the Compound Working Solution
The compound stock solution was diluted to final concentrations of 500, 150, 50, 15. 5, 1.5, 0.5, 0.15 and 0.05 μM to become the compound working solutions (50×).
Preparation of Different Enzyme Reaction Solutions
The TrkA (h) enzyme was dissolved in 8 mM MOPS (pH 7.0), 0.2 mM EDTA, and 250 μM KKKSPGEYVNIEFG to prepare an enzyme solution having a final concentration of 1.7 nM. The enzymatic reaction was activated by using 10 mM magnesium acetate and 10 μM [γ-^33P]-ATP to form an Mg/ATP mixed solution.
In a 384-well plate, the compound working solution was added to final concentrations of 10000, 3000, 1000, 300, 100, 30, 10, 3, and 1 nM. Then different enzyme reaction solutions prepared according to the above conditions were added. The incubation was carried out for 40 minutes at room temperature. The test was terminated by the addition of a 0.5% phosphoric acid solution. 10 μL of the reaction solution was taken and dropped to the P30 filter paper. The filter paper was washed 4 times with 0.425% phosphoric acid solution and once with methanol, and then placed on a scintillation counter. The […] IC50 values were calculated using GraphPad 5.0 software.

For a further test, the target named is T4, Ba/F3 ETV6-NTRK2 cells (Homo sapiens, UniProt Q16620).
T4 construct: fused on or other part: P41212 (Transcription factor ETV6)
T4 sequence (Q16620 whole entry, change not shown, the tested form may be a part): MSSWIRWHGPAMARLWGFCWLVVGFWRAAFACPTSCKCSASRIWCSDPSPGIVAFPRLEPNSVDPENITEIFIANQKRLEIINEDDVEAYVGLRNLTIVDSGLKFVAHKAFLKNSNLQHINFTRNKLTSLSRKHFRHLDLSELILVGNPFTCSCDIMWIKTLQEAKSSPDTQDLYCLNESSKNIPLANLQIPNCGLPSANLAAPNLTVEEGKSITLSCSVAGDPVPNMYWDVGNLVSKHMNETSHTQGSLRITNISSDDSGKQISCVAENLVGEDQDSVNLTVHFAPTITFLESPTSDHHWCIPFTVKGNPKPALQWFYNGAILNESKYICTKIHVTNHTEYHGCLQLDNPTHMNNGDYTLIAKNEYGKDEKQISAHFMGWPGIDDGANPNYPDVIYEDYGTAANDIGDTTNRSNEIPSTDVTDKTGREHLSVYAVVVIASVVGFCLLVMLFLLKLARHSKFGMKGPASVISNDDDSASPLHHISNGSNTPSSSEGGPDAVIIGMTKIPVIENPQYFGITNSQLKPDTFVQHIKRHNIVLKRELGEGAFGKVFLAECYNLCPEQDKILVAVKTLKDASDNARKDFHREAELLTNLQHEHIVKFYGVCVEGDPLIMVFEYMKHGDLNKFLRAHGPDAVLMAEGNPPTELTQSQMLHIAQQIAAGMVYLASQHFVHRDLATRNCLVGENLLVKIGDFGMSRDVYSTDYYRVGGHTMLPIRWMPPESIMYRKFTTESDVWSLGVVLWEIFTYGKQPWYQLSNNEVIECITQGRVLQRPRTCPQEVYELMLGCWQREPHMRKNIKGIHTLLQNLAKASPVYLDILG
Nature of the test: Cell viability test (CTG), Ba/F3 ETV6-NTRK2. The class given is cell-based. As to conditions: NTRK2 wild type cell, 72 hours, read-out: IC50 Ba/F3 ETV6-NTRK2. Here is the method:
as §1
Ba/F3 ETV6-NTRK2 is an NTRK 2 wild type cell;
as §3, §4, §5

Test [3] addresses T5, pCSF1R in CSF1R plasmid-transfected HEK293T cells (Homo sapiens, UniProt P07333).
T5 construct: expressed in transfected cells; host or cells: HEK293T
Nature of the test: Inhibitory activity on the cell pCSF1R (Western Blot). In kind it is cell-based. As to conditions: compound 30, 100, 300, 1000 nM, 120 minutes. Here is the method:
Assay 7: Test for Inhibitory Activities of the Compounds of the Present Invention on the Cell pCSF1R
HEK293T is a human renal epithelial cell.
as §3
Test equipment: protein electrophoresis apparatus (manufactured by Bio Rad), transfer unit (manufactured by Bio Rad), exposure unit (manufactured by Tanon), CO2 cell incubator (manufactured by Thermo).
The BEK293T cells were inoculated in a 6-well plate (containing 10% FBS DMEM medium, 4×10^5 cells per well), and adherent cells were cultivated at 37° C. in a 5% CO2 condition for 6 hours. Each well was transfected with 2 μg CSF1R plasmid, and the cells were cultivated at 37° C. in a 5% CO2 condition overnight. At 24 hours after transfection, different concentrations of compounds were added to the administration group. The final compound concentrations were 30, 100, 300, and 1000 nM, and the final DMSO content was 1‰. The negative control wells contained the medium containing 1‰ DMSO. […] The inhibitory activity of the compound on the cell pCSF1R was examined.
On the technique in general: Immunoblotting shows a protein as a band on a membrane.

T1 sequence (P04629 whole entry V573M, the tested form may be a part): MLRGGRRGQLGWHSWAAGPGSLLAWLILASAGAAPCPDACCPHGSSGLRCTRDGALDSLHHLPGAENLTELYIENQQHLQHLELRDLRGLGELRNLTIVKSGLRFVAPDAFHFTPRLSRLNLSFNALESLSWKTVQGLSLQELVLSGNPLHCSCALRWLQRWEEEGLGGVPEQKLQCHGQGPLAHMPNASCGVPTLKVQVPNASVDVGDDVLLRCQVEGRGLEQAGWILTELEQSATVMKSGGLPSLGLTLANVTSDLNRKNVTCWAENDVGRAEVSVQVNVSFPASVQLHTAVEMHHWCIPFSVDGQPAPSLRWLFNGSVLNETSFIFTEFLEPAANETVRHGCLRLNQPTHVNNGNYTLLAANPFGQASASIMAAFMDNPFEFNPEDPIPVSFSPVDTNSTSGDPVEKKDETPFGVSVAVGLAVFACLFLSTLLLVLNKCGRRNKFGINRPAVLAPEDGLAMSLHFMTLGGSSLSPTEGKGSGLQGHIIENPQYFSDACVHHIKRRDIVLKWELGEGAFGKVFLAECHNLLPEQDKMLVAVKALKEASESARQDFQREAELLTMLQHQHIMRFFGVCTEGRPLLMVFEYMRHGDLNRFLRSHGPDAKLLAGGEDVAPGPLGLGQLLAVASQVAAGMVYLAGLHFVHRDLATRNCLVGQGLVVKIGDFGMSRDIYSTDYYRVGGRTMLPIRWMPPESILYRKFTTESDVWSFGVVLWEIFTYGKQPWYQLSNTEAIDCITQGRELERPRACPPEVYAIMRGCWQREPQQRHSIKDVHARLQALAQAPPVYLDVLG
T2 sequence (P04629 whole entry G667C, the tested form may be a part): as the sequence (P04629 whole entry V573M, the tested form may be a part) above, with M573V, G667C counted along it
T5 sequence (P07333 20-972): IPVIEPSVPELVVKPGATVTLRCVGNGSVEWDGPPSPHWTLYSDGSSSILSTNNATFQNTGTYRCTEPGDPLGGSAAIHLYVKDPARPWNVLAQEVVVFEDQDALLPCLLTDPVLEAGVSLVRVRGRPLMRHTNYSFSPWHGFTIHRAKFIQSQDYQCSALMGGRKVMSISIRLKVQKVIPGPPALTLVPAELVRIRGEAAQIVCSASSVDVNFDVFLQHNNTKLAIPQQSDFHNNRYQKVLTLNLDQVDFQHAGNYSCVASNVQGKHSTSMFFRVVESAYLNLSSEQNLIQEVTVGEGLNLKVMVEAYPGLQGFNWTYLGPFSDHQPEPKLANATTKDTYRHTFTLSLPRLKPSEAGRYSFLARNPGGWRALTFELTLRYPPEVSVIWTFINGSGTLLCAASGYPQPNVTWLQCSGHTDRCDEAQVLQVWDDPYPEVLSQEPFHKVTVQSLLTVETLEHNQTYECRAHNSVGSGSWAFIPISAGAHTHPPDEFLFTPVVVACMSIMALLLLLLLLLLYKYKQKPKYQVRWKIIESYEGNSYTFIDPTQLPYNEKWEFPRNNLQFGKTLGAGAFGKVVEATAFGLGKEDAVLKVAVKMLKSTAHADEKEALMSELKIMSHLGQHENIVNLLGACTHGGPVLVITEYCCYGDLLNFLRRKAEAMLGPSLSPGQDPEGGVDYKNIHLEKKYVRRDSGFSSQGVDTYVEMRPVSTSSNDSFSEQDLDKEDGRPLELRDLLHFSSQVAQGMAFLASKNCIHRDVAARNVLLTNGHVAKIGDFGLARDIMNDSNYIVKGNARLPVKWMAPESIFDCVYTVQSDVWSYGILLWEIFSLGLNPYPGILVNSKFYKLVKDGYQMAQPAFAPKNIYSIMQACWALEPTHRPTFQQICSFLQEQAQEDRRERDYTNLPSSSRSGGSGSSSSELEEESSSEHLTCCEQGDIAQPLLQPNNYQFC

For `COc1cc2nccc(Oc3cnc(NC(=O)c4nn(C5CC5)cc(-c5ccc(F)cc5)c4=O)nc3)c2cc1OC` [Compound 33], the GI50 in test [1] was 6 nM; in test [2], 3 nM. Also, it took 13 nM to reach half-maximal inhibition against TrkA (h) (IC50).
With `COc1cc2nccc(Oc3ccc(NC(=O)c4cn(C(C)C)nc(-c5ccc(F)cc5)c4=O)cn3)c2cc1OC` [Compound 38, N-(6-((6,7-dimethoxyquinolin-4-yl)oxy)pyridin-3-yl)-6-para-fluorophenyl-2-isopropyl-5-oxo-2,5-dihydropyridazine-4-carboxamide], the GI50 in test [1] was 7.5 nM; in test [2], 5.7 nM. Moreover, on TrkA (h), 11 nM corresponded to half-maximal inhibition (IC50).
On TrkA (h), `COc1cc2nccc(Oc3ccc(NC(=O)c4cn(C(C)C)nc(-c5ccc(F)cc5)c4=O)nc3)c2cc1OC` [Compound 41, N-(5-((6,7-dimethoxyquinolin-4-yl)oxy)pyridin-2-yl)-6-(4-fluorophenyl)-2-isopropyl-5-oxo-2,5-dihydropyridazine-4-carboxamide] showed an IC50 of 5 nM. In other words, the single-digit nanomolar range.
In the case of `COc1cc2nccc(Oc3ncc(NC(=O)c4nn(C(C)C)cc(-c5ccc(F)cc5)c4=O)cn3)c2cc1OC` [Compound 34, N-(2-((6,7-dimethoxyquinolin-4-yl)oxy)pyrimidine-5-yl)-5-para-fluorophenyl-1-isopropyl-4-oxo-1,4-dihydropyridazine-3-carboxamide], the values for the GI50 (in test [1]; in test [2]; at Ba/F3 ETV6-NTRK2 cells) were 2.7 nM, 0.68 nM and 109 nM, respectively. Also, on TrkA (h), the midpoint of inhibition, the IC50, lay at 5 nM.
Turning to `COc1cc2nccc(Oc3ncc(NC(=O)c4nn(C5CC5)cc(-c5ccc(F)cc5)c4=O)cn3)c2cc1OC` [Compound 37, 1-cyclopropyl-N-(2-((6,7-dimethoxyquinolin-4-yl)oxy)pyrimidine-5-yl)-5-para-fluorophenyl-4-oxo-1,4-dihydropyridazine-3-carboxamide], the concentration for half-maximal inhibition (IC50) against TrkA (h) is 7 nM.
For `COc1cc2nccc(Oc3ccc(NC(=O)c4nn(C(C)C)cc(-c5ccc(F)cc5)c4=O)nc3)c2cc1OC` [Compound 15, N-(5-((6,7-dimethoxyquinolin-4-yl)oxy)pyridin-2-yl)-5-(4-fluorophenyl)-1-isopropyl-4-oxo-1,4-dihydropyridazine-3-carboxamide], the GI50 in test [1] came to 0.51 nM; in test [2], 0.09 nM; at Ba/F3 ETV6-NTRK2 cells it was 16.4 nM. For the same compound, the IC50 is 6 nM on TrkA (h) and 100 to 300 nM in test [3].
For `COc1cc2nccc(Oc3ccc(NC(=O)c4nn(C5CC5)cc(-c5ccc(F)cc5)c4=O)nc3)c2cc1OC` [Compound 31], the GI50 in test [1] and in test [2] was 1.4 nM each time. The figures for the IC50 (against TrkA (h); in test [3]) were 3 nM and 30 to 100 nM, respectively.
The compound `COc1cc2nccc(Oc3ccc(NC(=O)c4nn(C5CC5)cc(-c5ccc(F)cc5)c4=O)cn3)c2cc1OC` [Compound 36] registered an IC50 against TrkA (h) of 2 nM.
As to `COc1cc2nccc(Oc3ncc(NC(=O)c4cn(C(C)C)nc(-c5ccc(F)cc5)c4=O)cn3)c2cc1OC` [Compound 40, N-(2-((6,7-dimethoxyquinolin-4-yl)oxy)pyrimidine-5-yl)-6-(4-fluorophenyl)-2-isopropyl-5-oxo-2,5-dihydropyridazine-4-carboxamide], the GI50 in test [1] and in test [2] was 9.1 nM each time. The compound further had an IC50 on TrkA (h) of 7 nM.
Turning to `COc1cc2nccc(Oc3cnc(NC(=O)c4cn(C(C)C)nc(-c5ccc(F)cc5)c4=O)nc3)c2cc1OC` [Compound 39, N-(5-((6,7-dimethoxyquinolin-4-yl)oxy)pyrimidine-2-yl)-6-(4-fluorophenyl)-2-isopropyl-5-oxo-2,5-dihydropyridazine-4-carboxamide], the figures for the GI50 in test [1] and in test [2] were 5 nM and 8.1 nM, respectively. The same compound registered an IC50 on TrkA (h) of 18 nM.
